Here are results for 8 compounds from ChEMBL document CHEMBL1201862, “PubChem BioAssay data set” (2004).

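Step 1: Grow cells in 96-well plates. Step 2: Expose to compound for 48 hours at 5 concentrations. Step 3: Interpolate endpoints linearly; if unreached, use highest concentration. At the GI50, growth is halved.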 The source made the active and inactive calls. Rule as the data show it: active = GI50 up to about 1.1 µM and inactive = higher. Residues, ends and D or L forms follow the SMILES beside them.

As a reminder, the GI50 is the concentration that inhibits growth by half.

Test systems include SR; HOP-62; MDA-MB-231; ACHN; HCT-15; SF-295; PC-3; NCI-H226; NCI-H522; CCRF-CEM; HCT-116; A549; SW-620; MOLT-4; NCI/ADR-RES; NCI-H23; MDA-MB-435; DU-145; SNB-19; SNB-75.
Assay in all cases: DTP human tumour cell line panel, 48 h

On to `Cc1occc1C(=S)Nc1ccc(Cl)c(C(=O)OC(C(C)C)C(C)C)c1`, for which the GI50 in the experiment on SR was 7 µM (inactive); in the experiment on HOP-62, 17.2 µM (inactive); in the experiment with MDA-MB-231, 12.6 µM (inactive); in the experiment on ACHN, 12.1 µM (inactive); in the experiment on HCT-15 it was 13.1 µM; in the experiment with SF-295, 5.47 µM (inactive). Further, the GI50 with PC-3 was 7.46 µM (inactive); in the experiment with NCI-H226 it was 15.2 µM (inactive); in the experiment on NCI-H522, 11.8 µM (inactive); in the experiment on CCRF-CEM, 7.16 µM (inactive); in the experiment on HCT-116 it was 10.1 µM (inactive); with A549, 11.6 µM (inactive). Also, the GI50 with SW-620 is 16.6 µM (inactive); with MOLT-4, 5.32 µM (inactive); in the experiment with NCI/ADR-RES, 9.98 µM (inactive); in the experiment with NCI-H23 it was 8.15 µM (inactive); with MDA-MB-435 it was 15.1 µM (inactive); with DU-145, 13.7 µM (inactive). The GI50 in the experiment with SNB-19 was 21.3 µM (inactive).

Turning to `CCOC(=O)C(Cc1cn(C(C)=O)c2ccccc12)P(=O)(OCC)OCC` (configuration not stated), the GI50 was > 100 µM (inactive) in the experiment with SR; > 100 µM (inactive) with SNB-75; > 100 µM (inactive) in the experiment with HOP-62; > 100 µM (inactive) with MDA-MB-231; > 100 µM (inactive) in the experiment on ACHN; greater than 100 µM with HCT-15. Also, the GI50 in the experiment on SF-295 was > 100 µM (inactive); in the experiment on PC-3, 60.8 µM (inactive); in the experiment on NCI-H226 it was > 100 µM (inactive); in the experiment on NCI-H522 it was > 100 µM (inactive); in the experiment on HCT-116 it was > 100 µM (inactive); with A549 it was > 100 µM (inactive). In addition, the GI50 in the experiment on SW-620 was > 100 µM (inactive); in the experiment with MOLT-4, > 100 µM (inactive); in the experiment on NCI/ADR-RES, > 100 µM (inactive); in the experiment on NCI-H23, > 100 µM (inactive); in the experiment with MDA-MB-435, > 10 µM (inactive); in the experiment with DU-145, > 100 µM (inactive). Moreover, the GI50 in the experiment with SNB-19 is > 100 µM (inactive).

Take `O=C1CCc2cc3c(cc21)CC1(Cc2cc4c(cc2C1)CCCC4)C3`: the GI50 is 5.52 µM (inactive) with SR; 14.6 µM (inactive) in the experiment with SNB-75; 83.2 µM (inactive) with HOP-62; 19.4 µM (inactive) with MDA-MB-231; > 100 µM (inactive) in the experiment with ACHN; 69 µM in the experiment with HCT-15. For the same compound, the GI50 in the experiment with SF-295 was 33.9 µM (inactive); with PC-3 it was > 100 µM (inactive); in the experiment with NCI-H522 it was 26 µM (inactive); in the experiment on CCRF-CEM, 72.3 µM (inactive); in the experiment on HCT-116, 37.2 µM (inactive); with A549 it was 88.9 µM (inactive). Also, the GI50 was 29.1 µM (inactive) in the experiment on SW-620; > 100 µM (inactive) with MOLT-4; > 100 µM (inactive) with NCI/ADR-RES; > 100 µM (inactive) in the experiment with NCI-H23; 4.68 µM (inactive) in the experiment with MDA-MB-435; > 100 µM (inactive) in the experiment with DU-145. In the experiment with SNB-19, the GI50 was 45.1 µM (inactive).

With `O=C(C=P(c1ccccc1)(c1ccccc1)c1ccccc1)c1cccc(-c2cccc([N+](=O)[O-])c2)c1`, the GI50 is 2.58 µM (inactive) in the experiment with SR; 1.51 µM (inactive) in the experiment on SNB-75; 8.04 µM (inactive) in the experiment with HOP-62; 2 µM (inactive) in the experiment with MDA-MB-231; 2.89 µM (inactive) with ACHN; 3.16 µM with HCT-15. Besides, the GI50 in the experiment on SF-295 is 3.18 µM (inactive); in the experiment with PC-3 it was 2.84 µM (inactive); in the experiment with NCI-H522, 1.86 µM (inactive); in the experiment with CCRF-CEM it was 2.55 µM (inactive); with HCT-116, 3.55 µM (inactive); in the experiment with A549, 3.62 µM (inactive). Also, the GI50 with SW-620 was 3.33 µM (inactive); in the experiment with MOLT-4 it was 1.68 µM (inactive); in the experiment with NCI/ADR-RES it was 3.42 µM (inactive); in the experiment on NCI-H23, 3.44 µM (inactive); in the experiment on MDA-MB-435, 2.68 µM (inactive); in the experiment with DU-145, 6.78 µM (inactive). Besides, in the experiment on SNB-19, the GI50 was 4.21 µM (inactive).

`COC(=O)c1cc2c(c(C(=O)OC)c1)CCC2`: the GI50 in the experiment on SR was 30.3 µM (inactive); in the experiment on SNB-75, 34.8 µM (inactive); in the experiment with HOP-62, > 100 µM (inactive); with MDA-MB-231, 82.8 µM (inactive); in the experiment with ACHN, > 100 µM (inactive); with HCT-15, 63.1 µM. For the same compound, the GI50 was > 100 µM (inactive) in the experiment on SF-295; 68.5 µM (inactive) in the experiment with PC-3; 58.2 µM (inactive) in the experiment with NCI-H522; 50.8 µM (inactive) in the experiment on CCRF-CEM; 76.6 µM (inactive) in the experiment on HCT-116; > 100 µM (inactive) with A549. For the same compound, the GI50 in the experiment with SW-620 is > 100 µM (inactive); in the experiment with MOLT-4, 37.2 µM (inactive); in the experiment with NCI/ADR-RES it was 59.8 µM (inactive); in the experiment with NCI-H23, > 100 µM (inactive); in the experiment with MDA-MB-435, > 100 µM (inactive); in the experiment with DU-145, > 100 µM (inactive). Besides, the GI50 in the experiment with SNB-19 was > 100 µM (inactive).

As for `Cc1ccc(S(=O)(=O)N/N=C/C2(c3ccccc3)c3ccccc3-c3ccccc32)cc1`, the GI50 is 7.45 µM (inactive) in the experiment on SR; 17.7 µM (inactive) with HOP-62; 6.64 µM (inactive) with MDA-MB-231; 4.94 µM (inactive) in the experiment on ACHN; 9.27 µM in the experiment with HCT-15; 3.21 µM (inactive) in the experiment with SF-295. Also, the GI50 was 3.38 µM (inactive) in the experiment with PC-3; 14.7 µM (inactive) in the experiment with NCI-H226; 13 µM (inactive) in the experiment on NCI-H522; 4.16 µM (inactive) in the experiment on CCRF-CEM; 7.08 µM (inactive) in the experiment with HCT-116; 5.74 µM (inactive) in the experiment with A549. For the same compound, the GI50 in the experiment with SW-620 is 15 µM (inactive); with MOLT-4 it was 7.18 µM (inactive); in the experiment on NCI/ADR-RES it was 7.94 µM (inactive); with NCI-H23, 15.5 µM (inactive); in the experiment with MDA-MB-435, 11 µM (inactive); with DU-145 it was 12.1 µM (inactive). In addition, the GI50 in the experiment on SNB-19 was 18.7 µM (inactive).

Consider `CCCc1c(O)nc(Nc2nc3ccccc3[nH]2)[nH]c1=O`, for which the GI50 was > 100 µM (inactive) in the experiment with SR; > 100 µM (inactive) in the experiment with SNB-75; > 100 µM (inactive) in the experiment on MDA-MB-231; > 100 µM (inactive) with ACHN; greater than 100 µM with HCT-15; > 100 µM (inactive) in the experiment on SF-295. Also, the GI50 in the experiment with PC-3 is > 100 µM (inactive); in the experiment on NCI-H226, > 100 µM (inactive); with NCI-H522, 71.3 µM (inactive); in the experiment with CCRF-CEM, 86.5 µM (inactive); in the experiment with HCT-116, > 100 µM (inactive); in the experiment with A549 it was > 100 µM (inactive). Besides, the GI50 in the experiment on SW-620, with MOLT-4, in the experiment on NCI/ADR-RES, in the experiment on NCI-H23, in the experiment with MDA-MB-435 and in the experiment with DU-145 was > 100 µM (inactive) in each case. The GI50 in the experiment with SNB-19 was > 100 µM (inactive).

As to `CCC(C)C(NC(=O)C(CC(C)C)NC(=O)CNC(=O)C(NC(=O)C1CCCN1C(=O)C(CC(C)C)NC(=O)C(N)Cc1ccccc1)C(C)CC)C(=O)NC(CC(C)C)C(N)=O` (configuration not stated) (H-FLPIGLIL-NH2; configuration not given here), the GI50 in the experiment on SR was > 75 µM (inactive); in the experiment on HOP-62, > 75 µM (inactive); in the experiment on MDA-MB-231, > 75 µM (inactive); with ACHN, > 75 µM (inactive); in the experiment with HCT-15, greater than 75 µM; with SF-295, > 75 µM (inactive). Moreover, the GI50 in the experiment with PC-3, with NCI-H226, in the experiment with NCI-H522, in the experiment with CCRF-CEM, in the experiment on HCT-116 and with A549 was > 75 µM (inactive) in each case. In addition, the GI50 in the experiment with SW-620, in the experiment on MOLT-4, in the experiment with NCI/ADR-RES, with NCI-H23, in the experiment on MDA-MB-435 and in the experiment with DU-145 was > 75 µM (inactive) in each case. Besides, in the experiment with SNB-19, the GI50 is > 75 µM (inactive).
